Source: patent US7208515B2, “Diphenylmethyl compounds useful as muscarinic receptor antagonists” (Theravance, Inc., priority 2004, dated 2007)

How the values were obtained:
[1] = biological target: T1, hM2 receptor (CHO-K1 cells) (Homo sapiens, UniProt P08172); assay: Blockade of agonist-mediated inhibition of cAMP accumulation; format: cell-based; conditions: CHO-K1 cells expressing the hM2 receptor; read-out: Ki value for blockade of oxotremorine-inhibition of forskolin-mediated cAMP accumulation
T1 construct: expressed in transfected cells; host or cells: CHO-K1 cells
T1 sequence (P08172 1-466): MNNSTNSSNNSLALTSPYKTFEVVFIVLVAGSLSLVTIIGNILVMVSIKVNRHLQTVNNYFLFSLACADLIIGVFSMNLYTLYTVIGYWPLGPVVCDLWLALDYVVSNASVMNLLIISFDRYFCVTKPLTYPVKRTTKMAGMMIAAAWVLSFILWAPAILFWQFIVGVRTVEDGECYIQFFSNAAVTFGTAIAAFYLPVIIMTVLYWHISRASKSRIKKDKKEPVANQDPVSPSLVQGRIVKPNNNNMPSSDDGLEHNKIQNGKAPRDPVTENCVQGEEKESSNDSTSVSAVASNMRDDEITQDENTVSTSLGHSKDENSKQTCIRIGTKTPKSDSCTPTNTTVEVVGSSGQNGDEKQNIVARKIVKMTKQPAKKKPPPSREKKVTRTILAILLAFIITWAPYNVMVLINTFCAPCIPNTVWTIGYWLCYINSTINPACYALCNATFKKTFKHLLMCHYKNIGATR
Experimental: A. Blockade of Agonist-Mediated Inhibition of cAMP Accumulation
In this assay, the functional potency of a test compound was determined by measuring the ability of the test compound to block oxotremorine-inhibition of forskolin-mediated cAMP accumulation in CHO-K1 cells expressing the hM2 receptor.
cAMP assays were performed in a radioimmunoassay format using the Flashplate Adenylyl Cyclase Activation Assay System with ^125I-cAMP (NEN SMP004B, PerkinElmer Life Sciences Inc., Boston, Mass.), according to the manufacturer's instructions.
Cells were rinsed once with dPBS and lifted with Trypsin-EDTA solution (0.05% trypsin/0.53 mM EDTA) as described in the Cell Culture and Membrane Preparation section above. […] The cell pellet was then re-suspended in 10 mL dPBS, and the cells were counted with a Coulter Z1 Dual Particle Counter (Beckman Coulter, Fullerton, Calif.). […]
Reactions were incubated for 10 minutes at 37° C. and stopped by addition of 100 μL ice-cold detection buffer. Plates were sealed, incubated overnight at room temperature and counted the next morning on a PerkinElmer TopCount liquid scintillation counter (PerkinElmer Inc., Wellesley, Mass.). The amount of cAMP produced (pmol/well) was calculated based on the counts observed for the samples and cAMP standards, as described in the manufacturer's user manual. […]

[2] = biological target: T1, hM2 receptor (CHO-K1 cells); assay: Blockade of agonist-mediated [35S]GTPγS binding; format: biochemical; conditions: CHO-K1 cells expressing the hM2 receptor; read-out: Ki value for blockade of oxotremorine-stimulated [35S]GTPγS binding
Experimental: B. Blockade of Agonist-Mediated [^35S]GTPγS Binding
In a second functional assay, the functional potency of test compounds can be determined by measuring the ability of the compounds to block oxotremorine-stimulated [^35S]GTPγS binding in CHO-K1 cells expressing the hM2 receptor.
At the time of use, frozen membranes were thawed and then diluted in assay buffer with a final target tissue concentration of 5–10 μg protein per well. The membranes were briefly homogenized using a Polytron PT-2100 tissue disrupter and then added to the assay plates.
The EC90 value (effective concentration for 90% maximal response) for stimulation of [^35S]GTPγS binding by the agonist oxotremorine was determined in each experiment.
To determine the ability of a test compound to inhibit oxotremorine-stimulated [^35S]GTPγS binding, the following was added to each well of 96 well plates: 25 μL of assay buffer with [^35S]GTPγS (0.4 nM), 25 μL of oxotremorine(EC90) and GDP (3 μM), 25 μL of diluted test compound and 25 μL CHO cell membranes expressing the hM2 receptor. […] Microscint-20 scintillation liquid (50 μL) was added to each well, and each plate was sealed and radioactivity counted on a topcounter (PerkinElmer). Data were analyzed by nonlinear regression analysis with the GraphPad Prism Software package (GraphPad Software, Inc., San Diego, Calif.) using the non-linear regression, one-site competition equation. […]

Ki [1]: < 100 nM | Ki [2]: < 100 nM
Compound: CNCC(=O)NCCCCCN1CC[C@@H](C(C(N)=O)(c2ccccc2)c2ccccc2)C1 [Example 1]
